Measured values taken from patent publication EP1903028A1, “Conjugates of glutamate and NMDA receptor channel blockers without excito-toxic effects” (Tschollar,, Werner, priority 2006, dated 2008).
Where two headings read alike, the source gives them in different places.

Legend:
aminopeptidase A = target: T1, aminopeptidase A (Rattus norvegicus, UniProt P50123); type: in vitro ADME
T1 construct: Hippocampi were removed on ice and coronal slices chopped (0.40 mm thick); from tissue; host or cells: rat hippocampal slices
Protocol: Animals were housed in plastic cages, with free access to standard laboratory food and water, under controlled conditions of lighting, humidity and temperature. Rats were killed by decapitation and brains were quickly removed and immediately transferred in ice-cold artificial cerebrospinal fluid (aCSF) having the following composition (mM):125 NaCl, 3 KCl, 1.2 CaCl2, 1.2 MgSO4, 1 NaH2PO4, 22 NaHCO3 and 10 glucose (aerated with 95% O2 and 5% CO2 at 37°C), pH 7.2-7.4. Hippocampi were removed on ice and coronal slices chopped (0.40 mm thick). Slices were then incubated for 1 h in the presence of a 95% O2and 5% CO2 current (37°C). After washing with fresh aCSF (37°C), slices were transferred to a modified 24 chamber's cell culture well (2 slices per chamber) adapted to accept a constant current of 95% O2 and 5% CO2 all experiment time long. 2 ml aCSF was present in each chamber. Some experiments were performed in a modified aCSF containing 1mM EGTA in the absence of Ca^2+ ions. Drugs were added immediately before slices. After 1h incubation at 37°C, 80 µl aCSF per chamber was drawn in order to evaluate the metabolization time-course. After 3h incubation the experiment ended with a new 80 µl drawing.
Rat hippocampal slices, incubated in physiological conditions (95% 02; 5% CO2 at 37°C, pH 7.2-7.4), metabolized Compound 1 ((S)-4-amino-5-[(4,4-dimethylcyclohexyl)-amino]-5-oxo-pentanoic acid) into Compound 2 (4,4-dimethyl-cyclohexamine) + glutamic acid. After 1h incubation 2,5% ± 0,3% (n=2) Compound 1 was cleaved to yield Compound 2. After 3h incubation 9,0% ± 0,0% (n=2) Compound 1 was cleaved to Compound 2. In the presence of 3 µM amastatin, a selective inhibitor of aminopeptidase A, the cleavage of Compound 1 at 1h and 3h was reduced to 0,5% and 2,0%, respectively (see Figure 2). […] Since aminopeptidase A is a Ca++-dependent enzyme, the cleavage of Compound 1 was then examined under Ca++ -free conditions. In the absence of Ca++ ions, Compound 1 cleavage was inhibited by 76% at 1h and 3h. Aminopeptidase A therefore appears to be the principal enzyme responsible for the cleavage of Compound 1 into Compound 2 plus glutamate.

[1] = Electroconvulsive shock-induced memory impairment; type: in vivo; details: Compound 1: 3, 10 and 30 mg/kg; significant at 10 and 30 mg/kg (P <0.05, P <0.01)
Protocol: (§1) The cleavage is inhibited by the specific aminopeptidase A inhibitor amastatin. The amount of Compound 2 produced by cleavage of Compound 1 after 3 hours incubation with hippocampal slices is shown. AMA=Amastatin. • FIGS. 3A,B show inhibition of NMDA function by Compound 2. […] Effects of Compound 2 on [^3H]MK-801 binding enhanced by glycine (panel A), glutamate (panel B) and spermine (panel C). […] The 3H-MK-801 concentration was approx. 3 nM in all the experiments. […] Effect of Compound 1 administered i.p. twice a day (30 min before session and at 5.00 p.m.) for 4 days. […] Data are Mean ± s.e.m. of the efficiency indexes grouped in 2-day intervals. […] Values represent the median latency (sec) to enter the shock compartment and interquartile ranges. †P <0.05 vs. scopolamine + (FS), ‡P < 0.01 vs. saline + (FS) (log rank test). […] Values represent the median latency (s) to enter the shock compartment and interquartile ranges. **P < 0.01 vs. vehicle no ECS, †P< 0.05 and ‡P< 0.01 vs. vehicle + ECS (log rank test).
In another model of memory impairment, electroconvulsive shock was employed as a memory de-stabilizer. […] For doses of 10 and 30 mg/kg the effect was statistically significant (P <0.05 and P <0.01, respectively) (see Figure 7B).

CA1 pyramidal neurons = assay: NMDA excito-toxicity in hippocampal slices in vitro (area of CA1 pyramidal neurons); type: cell-based, rat; details: 100 µM NMDA, compound added 15 min prior, 45 min incubation
Protocol: In this experiment, slices were obtained from hippocampi of young (8 day old) rats. After one hour of pre-incubation, NMDA was added to give a final concentration of 100 µM. Either Compound 1 or Compound 2 was added 15 min prior to NMDA and the incubation was carried out for 45 min. Three slices of each sample were collected and fixed with glutaraldehyde (5%). After embedding and freezing, sections (4 µm) were stained with Cresyl violet. Neuronal injury was studied with light microscopy using an imaging analyser (Kontron, KS300). The area occupied by CA1 pyramidal neurons was measured in an analyser-defined field. The pattern of hippocampal neuro-degeneration following NMDA-stimulation consisted of a significant decrease in neuronal nuclei area. […] In contrast, Compound 1 had no effect on NMDA-induced neuronal damage (results not shown).

[2] = tested on: gerbils subjected to bilateral occlusion of the carotid arteries; assay: Neuro-protection after bilateral occlusion of the carotid arteries in vivo; set-up: species or system Mongolian gerbils
Protocol: This experiment investigated the neuro-protective effects of Compound 2 in gerbils subjected to bilateral occlusion of the carotid arteries. Mongolian gerbils were anaesthetised with halothane and the right and left common carotid arteries were occluded for a period of 5 min. […] The brains were cut into 10 µm-thick sections in the area of the hippocampus and sections were stained with cresyl violet. Quantitative assessment of area occupied by CA pyramidal neurons was performed using an image analyser (Kontron, KS300). For each animal, measurements were made in a defined field from both hippocampi in 4 coronal sections. The raw data were represented by the mean of 8 measures. The pattern of hippocampal neuro-degeneration following ischemia consisted of a significant decrease of neuronal nuclei area.
Compound 2 at a dose of 16 mg/kg, was 100% protective (see Figure 5).

rats [3] = assay: Radial maze learning test; type: in vivo; details: for test acquisition in the radial maze: Compound 1: 1-30 mg/kg, versus control animals
Protocol: In another experiment of learning, a radial maze test was used. The radial maze consisted of eight arms radiating from a centre platform. The platform was 40 cm in diameter and the eight arms were 60 cm long, 13 cm wide, with walls 10 cm high. The surface of the maze was elevated 50 cm from the floor. Plastic food cups (4 cm in diameter) were at the end of each arm. One 50 mg micro-pellet was placed in a cup at the beginning of each trial. In the training session, the rat was placed in the centre of the platform facing arm #4 and allowed to freely explore the maze. The animal was left in the maze until it ate all of the 24 pellets placed three per arm.

rats [4] = assay: Scopolamine-induced memory impairment, passive avoidance; type: in vivo; details: Compound 1: 1 and 10 mg/kg, i.p.; significant (p<0.05) at 10 mg/kg
Protocol: as §1
In this experiment, Compound 1 was tested to determine whether it could reverse scopolamine-induced memory impairment in a passive-avoidance paradigm in rats.

rats [5] = assay: Lever-holding operant behaviour (Skinner Box); type: in vivo; details: 3-10-30 mg/kg i.p., 14 days, p=0.007 versus control
Protocol: In a further test of learning, lever-holding operant behaviour was tested in a standard rodent operant conditioning chamber (Skinner Box). Rats were trained to press the lever for water reward on a continuous reinforcement schedule, for which each lever pressing was rewarded. Daily sessions lasted 30 min and were performed under a green light. Water was restricted to a 30 min post-session period. After two days of stabilisation, rats were subjected to a visual discrimination schedule, in which a green light signalled the availability of the reinforcement for 60 sec, followed by a 30 sec interval with no reinforcement. Daily sessions lasted 30 min and were repeated for 14 days. Data were expressed as the Efficiency Index, which is a ratio of reinforced (correct responses during a session) to non-reinforced responses.

in vivo = details: rat, 30 mg/kg
Protocol: The average (± s.e.m.) plasma and cerebrospinal fluid levels of Compound 1, after a single i.p. or oral administration of 30 mg/kg plotted against time (h), are given in Figure 1. Compound 1 appeared in plasma shortly after both oral and i.p. administration, with a lag-time of 0.12 h. […] Compound 1 crossed the blood-CSF barrier very rapidly, showing lag times of 0.1-0.23 h after oral and i.p. administration, respectively. The maximum concentration of Compound 1 in the CSF was reached 45-60 min after oral and i.p. administration. […] Compound 1 therefore efficiently crosses into the CSF in rats.

rats [6] = assay: Step-through active avoidance test (acquisition of active avoidance behaviour); type: in vivo; details: for percent of conditioned avoidance: Compound 1: 3 and 10 mg/kg i.p. twice a day, 5 days, p<0.001
Protocol: as §1
The acquisition of active avoidance behaviour was evaluated during one 40-trial daily session for 5 consecutive days. Compound 1, when given at doses of 3 and 10 mg/kg, increased the percent of conditioned avoidance (see Figure 6A).

NMDA receptor = assay: [3H]MK-801 binding to washed rat cortical membranes enriched for NMDA receptors; details: binding enhanced by glycine, glutamate or spermine; 10, 100, 1000 µM Compound 2; approx. 3 nM 3H-MK-801
Protocol: as §1
MK-801 (dizocilpine) is an open-channel ligand of the NMDA Ca channel. Washed rat cortical membranes enriched for NMDA receptors were incubated with increasing concentrations of the co-agonists glycine or glutamate, or the positive modulator spermine, and Compound 2. The binding of ^3H MK801 was then measured. […]

NMDAR (subtype NR1/NR2A) = target: T2, NMDAR (subtype NR1/NR2A) (Homo sapiens, UniProt Q05586+Q12879); assay: Glutamate-evoked currents in NMDA receptor-transfected oocytes; type: cell-based; details: glutamate 10uM, 100uM glycine, read-out: IC50, inhibition of glutamate-stimulated Ca current
T2 construct: expressed in transfected cells
Protocol: Glutamate stimulates an inward Ca current through the NMDA receptor channel by binding to a specific ligand-binding site at the NR1/NR2 subunit interface and opening the ion channel to the influx of calcium. Glutamate (10uM) was added to oocytes transfected with the NMDAR (subtype NR1/NR2A) in the presence of 100uM glycine and increasing amounts of Compound 2.

T1 sequence (P50123 whole entry): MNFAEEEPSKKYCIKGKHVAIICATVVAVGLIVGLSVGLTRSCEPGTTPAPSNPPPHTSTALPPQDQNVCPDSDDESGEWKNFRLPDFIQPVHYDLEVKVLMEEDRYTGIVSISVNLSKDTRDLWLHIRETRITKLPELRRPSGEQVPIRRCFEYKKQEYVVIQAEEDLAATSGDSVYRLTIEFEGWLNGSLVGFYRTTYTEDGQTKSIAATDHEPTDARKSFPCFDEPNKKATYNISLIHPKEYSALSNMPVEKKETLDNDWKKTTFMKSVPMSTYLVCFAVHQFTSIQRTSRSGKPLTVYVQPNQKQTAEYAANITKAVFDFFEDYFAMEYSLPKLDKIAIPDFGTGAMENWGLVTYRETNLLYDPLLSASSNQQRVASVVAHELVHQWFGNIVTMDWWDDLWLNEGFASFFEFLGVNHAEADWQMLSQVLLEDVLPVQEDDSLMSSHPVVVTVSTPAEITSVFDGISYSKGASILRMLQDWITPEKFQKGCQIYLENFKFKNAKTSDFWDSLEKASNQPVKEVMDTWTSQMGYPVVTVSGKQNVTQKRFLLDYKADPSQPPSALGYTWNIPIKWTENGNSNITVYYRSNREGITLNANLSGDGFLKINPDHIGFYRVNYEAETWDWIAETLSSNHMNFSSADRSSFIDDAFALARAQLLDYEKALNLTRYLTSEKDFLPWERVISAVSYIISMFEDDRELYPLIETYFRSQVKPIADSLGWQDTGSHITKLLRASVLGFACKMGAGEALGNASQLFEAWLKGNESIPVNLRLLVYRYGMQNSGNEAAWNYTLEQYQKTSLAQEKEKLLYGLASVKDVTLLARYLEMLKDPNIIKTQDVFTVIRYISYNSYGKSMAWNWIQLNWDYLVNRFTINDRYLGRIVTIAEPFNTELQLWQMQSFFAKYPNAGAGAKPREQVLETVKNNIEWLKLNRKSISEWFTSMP
T2 sequence (Q12879 23-1464, other chains not shown): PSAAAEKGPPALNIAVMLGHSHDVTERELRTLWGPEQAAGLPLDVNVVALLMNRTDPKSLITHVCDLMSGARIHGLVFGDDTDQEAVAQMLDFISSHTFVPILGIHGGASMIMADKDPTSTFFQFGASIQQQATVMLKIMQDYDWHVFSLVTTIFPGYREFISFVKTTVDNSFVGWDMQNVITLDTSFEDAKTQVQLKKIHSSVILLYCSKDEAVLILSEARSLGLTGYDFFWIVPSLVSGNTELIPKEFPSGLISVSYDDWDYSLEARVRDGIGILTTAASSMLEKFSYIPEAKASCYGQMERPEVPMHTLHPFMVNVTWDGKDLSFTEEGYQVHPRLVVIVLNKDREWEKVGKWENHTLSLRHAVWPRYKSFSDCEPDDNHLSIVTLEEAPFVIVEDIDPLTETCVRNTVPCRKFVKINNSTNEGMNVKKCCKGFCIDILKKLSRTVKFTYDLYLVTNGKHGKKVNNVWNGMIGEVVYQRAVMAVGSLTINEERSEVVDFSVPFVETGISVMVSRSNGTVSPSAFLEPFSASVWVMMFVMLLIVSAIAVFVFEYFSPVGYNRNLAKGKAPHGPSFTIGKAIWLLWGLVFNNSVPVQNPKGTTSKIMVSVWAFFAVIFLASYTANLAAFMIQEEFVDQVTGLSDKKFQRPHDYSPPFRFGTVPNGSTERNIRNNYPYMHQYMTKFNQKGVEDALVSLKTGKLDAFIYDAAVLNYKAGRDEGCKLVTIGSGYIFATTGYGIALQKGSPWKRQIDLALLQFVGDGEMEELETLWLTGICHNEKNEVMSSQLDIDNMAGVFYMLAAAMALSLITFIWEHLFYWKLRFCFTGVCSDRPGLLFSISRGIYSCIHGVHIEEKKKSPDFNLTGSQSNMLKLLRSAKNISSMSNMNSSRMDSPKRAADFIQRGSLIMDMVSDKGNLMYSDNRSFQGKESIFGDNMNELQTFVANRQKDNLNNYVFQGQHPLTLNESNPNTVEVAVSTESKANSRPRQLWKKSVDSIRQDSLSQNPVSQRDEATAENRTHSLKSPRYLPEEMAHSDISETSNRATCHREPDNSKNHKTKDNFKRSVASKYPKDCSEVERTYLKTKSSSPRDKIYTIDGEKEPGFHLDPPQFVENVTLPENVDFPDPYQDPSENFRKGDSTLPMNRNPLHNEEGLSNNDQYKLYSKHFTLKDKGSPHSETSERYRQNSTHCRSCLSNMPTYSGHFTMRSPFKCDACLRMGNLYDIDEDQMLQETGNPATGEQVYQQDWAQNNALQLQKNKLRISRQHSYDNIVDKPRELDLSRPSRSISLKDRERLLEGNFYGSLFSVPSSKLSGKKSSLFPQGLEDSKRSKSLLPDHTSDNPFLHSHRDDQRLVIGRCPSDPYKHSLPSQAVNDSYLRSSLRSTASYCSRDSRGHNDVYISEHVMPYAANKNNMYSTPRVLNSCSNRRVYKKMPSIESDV

Structure (SMILES): CC(C)C[C@@H](N)[C@H](O)C(=O)N[C@H](C(=O)N[C@H](C(=O)N[C@@H](CC(=O)O)C(=O)O)C(C)C)C(C)C [Amastatin, reference compound]
- IC50 (aminopeptidase A; rat hippocampal slices, read-out: IC50, inhibition of cleavage of Compound 1): 0.3 µM

Structure (SMILES): CC1(C)CCC(NC(=O)[C@@H](N)CCC(=O)O)CC1 [Compound 1, (S)-4-amino-5-(4,4-dimethylcyclohexylamino)-5-oxopentanoic acid]
- step-down latency after electroconvulsive shock [1]: dose-dependently increased step-down latency
- effect on NMDA-induced neuronal damage (CA1 pyramidal neurons): no effect
- mortality ([2]; 50mg/kg, ischemia alone 50% 7-day mortality): zero
- number of sessions to reach acquisition criterion (rats [3]; 10 and 30 mg/kg (P <0.05, P <0.01, respectively)): decreased
- test acquisition in the radial maze (rats [3]): faster test acquisition
- retention latency, reversal of scopolamine-induced memory impairment (rats [4]): dose-dependently increased latency
- Compound 1 cleavage inhibited (aminopeptidase A; in the absence of Ca++ ions, at 1h and 3h): 76%
- Compound 1 cleaved to yield Compound 2 (aminopeptidase A; rat, 1 h, pH 7.2): 2,5% ± 0,3%
- Compound 1 cleaved to Compound 2 (aminopeptidase A; rat, 3 h, pH 7.2): 9,0% ± 0,0%
- percent of reinforced responses (Efficiency Index) (rats [5]): increased in a dose-dependent manner
- Tmax (in vivo): 1 h
- plasma lag-time (in vivo): 0.12 h
- time to maximum concentration in the CSF (in vivo): 45 to 60 min
- Kp (in vivo; ip): 0.48
- lag time for crossing the blood-CSF barrier (in vivo; ip): 0.23 h
- Kp (in vivo; po): 0.62
- lag time for crossing the blood-CSF barrier (in vivo; po): 0.1 h
- percent of conditioned avoidance (rats [6]): increased
- uncoordinated escape responses or spontaneous inter-trial responses (rats [6]; rat, in vivo): did not affect

Structure (SMILES): CC1(C)CCC(N)CC1 [Compound 2, 4,4-dimethyl-cyclohexylamine]
- step-down latency after electroconvulsive shock [1]: without effect
- inhibition of MK-801 binding (NMDA receptor): inhibited MK-801 binding in a dose-dependent fashion
- IC50 (CA1 pyramidal neurons; Rattus norvegicus, Pyramidal neuron, slices of 8 day old rats, read-out: IC50, prevention of NMDA-induced damage): 189 ± 42.4 µM
- IC50 (NMDAR (subtype NR1/NR2A); 100 millivolts): 30 µM
- IC50 (NMDAR (subtype NR1/NR2A); -60 millivolts): 117 µM
- protective (7-day mortality) ([2]; 16 mg/kg, 1 hour prior to ischemia, ischemia alone 50% mortality): 100%
- protection from neuronal degeneration and death ([2]; administered 1 hour prior to ischemia): dose-dependently protected
- test acquisition in the radial maze (rats [3]): without effect
- retention latency, reversal of scopolamine-induced memory impairment (rats [4]): unable to reverse
- percent of conditioned avoidance (rats [6]): without activity
